Measured values from article PMC3045100, “Cell-Penetrating Penta-Peptides (CPP5s): Measurement of Cell Entry and Protein-Transduction Activity” (Pharmaceuticals, 2010).

Assays:
Type in all cases: cell-based
Bax = target: T1, Bax (Homo sapiens, UniProt Q07812); experiment: Inhibition of Bax-induced apoptosis after pEGFP-Bax transfection; details: 200 μM peptide 3 h before pEGFP-Bax plasmid transfection, apoptosis assayed 24 h after transfection, triplicate samples, P < 0.01
T1 construct: expressed in transfected cells; host or cells: HeLa cells
Description: (§1) Figure 3 Protection of cells from apoptosis by VPTLK. a-d. Proteoglycan is not required for VPTLK cell entry. Microscopic analysis of cell entry of Fam-VPTLK in Chinese Hamster Ovary (CHO) A745 cells lacking proteoglycans in the plasma membrane (a) and CHO K1 cells that express proteoglycans (b). CHO A745 and K1 cells were incubated with Fam-VPTLK (200 μM) for 3 h at 37 °C. […] Apoptosis was determined by using Hoechst dye nuclear staining. Each bar represents the mean of triplicate samples and standard error, and statistical significance was determined by an unpaired student t test; “ns”: not significant, *P < 0.05, and **P < 0.01. e. […] Jurkat cells were pre-incubated with VPTLK 200 μM for 3 h prior to STS treatment (100 nM, 3 or 6 h). Apoptosis was determined by Hoechst dye nuclear staining. Each bar represents the mean of triplicate samples and standard error, and statistical significance was determined by an unpaired student t test: **P < 0.01. f. […] Apoptosis was determined by Hoechst dye nuclear staining. […]
(§2) To induce Bax-mediated apoptosis in HeLa cells, cells were transfected with pEGFP-Bax (1 µg) and apoptosis was determined 24 h after the transfection. […] To detect apoptosis, cells were stained with Hoechst 33258 dye, and the numbers of cells with apoptotic nuclei were counted using fluorescence microscopy. Three-hundred cells were analyzed in triplicate samples. […]

Jurkat cells = experiment: Protection from staurosporine-induced apoptosis (Hoechst nuclear staining); details: 200 μM peptide 3 h pre-incubation, STS 100 nM, 3 or 6 h, Hoechst dye nuclear staining, triplicate samples, P < 0.01
Description: as §1, §2

HeLa cells = experiment: Protection from etoposide-induced apoptosis (Hoechst nuclear staining); details: 200 μM peptide 3 h pretreatment, etoposide 10 μM, 24 h, Hoechst dye nuclear staining, triplicate samples, P < 0.01
Description: as §1, §2

[1] = tested on: Primary cultured mouse embryonic fibroblast (MEF) cells; experiment: Cytotoxicity (apoptosis, Hoechst nuclear staining) of CPP5 and TAT
Description: List of cell-penetrating penta-peptides (CPP5s). […] Peptide sequences are color-coded to show the constant amphipathic amino acid arrangement in each CPP5. […] Fam was labeled on the N-terminus of all peptides examined. Cells were analyzed by FACS and/or microscopy. The activity of each peptide is shown as a percentage of the activity of KLPVM. Each value represents the mean of triplicate samples. Cell entry of some peptides was confirmed by microscopy only, and these peptides are indicated with a '+' without a percentage value. For cytoprotective activity (right column), the information is based on previous studies and the activity was determined by the protection of cells from Bax overexpression and other apoptotic stimuli such as etoposide treatment. b to e. Cell entry of Fam-labeled […], and poly-arginine (R8). […] Comparison of the cytotoxicity of CPP5 and TAT. Primary cultured mouse embryonic fibroblast (MEF) cells were treated with various concentrations of peptides for 24 h as indicated. Then, apoptosis was analyzed as described in Experimental Procedures. Each bar represents the mean of triplicate samples and standard error.

T1 sequence (Q07812 whole entry, species assumed): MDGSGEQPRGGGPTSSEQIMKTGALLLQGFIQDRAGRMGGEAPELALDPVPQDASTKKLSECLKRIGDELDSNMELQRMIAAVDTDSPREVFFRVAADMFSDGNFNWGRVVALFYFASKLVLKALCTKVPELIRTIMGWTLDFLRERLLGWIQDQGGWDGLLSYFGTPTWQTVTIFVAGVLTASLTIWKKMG

Substance: VPTLK
- Inhibition of Bax-induced apoptosis, HeLa (Bax): inhibited Bax-induced apoptosis in HeLa cells
- Protection from STS-induced apoptosis, Jurkat (Jurkat cells): protected Jurkat cells from STS-induced apoptosis
- Protection from etoposide-induced apoptosis, HeLa (HeLa cells): protected HeLa cells from etoposide-induced apoptosis
- Cytotoxic effect at 1.6 mM in the cell culture medium [1]: did not show significant cytotoxic effects
